Laboratory results taken from patent US20240335462A1, “SULFUR/PHOSPHORUS-CONTAINING ARYL COMPOUND AND APPLICATION THEREOF” (MEDSHINE DISCOVERY INC., priority 2021, published 2024).

Columns and labels:
[1] = test system: JH2 pseudokinase domain of TYK2; details: background statement; cited from earlier work
[2] = target: Ba/F3-FL-TYK2-E957D cells (Homo sapiens, UniProt P29597, E957D, cells depend on it); test: Proliferation of Ba/F3-FL-TYK2-E957D cells (CellTiter-Glo); assay type: cell-based, mouse; details: 72 hours, read-out: Half maximal inhibitory concentration IC50 for cells Ba/F3-FL-TYK2-E957D
Source text: (§1) Adenosine triphosphate (ATP) serves as a universal energy carrier in various life processes, representing the smallest unit of energy storage and transfer. The CellTiter-Glo™ Luminescent Cell Viability Assay Kit utilizes luciferase as a detection agent. During the luminescent process, luciferase requires the participation of ATP. By adding CellTiter-Glo™ reagent to the cell culture medium and measuring the luminescence, the light signal was directly proportional to the amount of ATP in the system, and ATP was positively correlated with the number of viable cells. Therefore, cell proliferation can be detected by measuring ATP content using the CellTiter-Glo kit. In this test, the cell lines used were Ba/F3-FL-TYK2-E957D and Ba/F3-TEL-TYK2. Ba/F3-FL-TYK2-E957D cells can stably express the exogenously introduced human TYK2-E957D gene, and the TYK2-E957D gene sequence contains both JH1 and JH2 domains. On the other hand, Ba/F3-TEL-TYK2 cells can stably express the exogenously introduced human TEL-TYK2 gene, and the TEL-TYK2 gene sequence contains only the JH1 domain of TYK2.
(§2) The cell lines were cultured in an incubator at 37° C. with 5% CO2. Regular passaging was performed, and cells in the logarithmic growth phase were selected for plating.
(§3) • a) The test compounds were prepared into a 10 mM solution with DMSO, and then diluted to 0.3 or 1 mM with DMSO. • b) Preparation of 1000× compound storage plate (tube): The compounds were 3-fold serially diluted from the highest concentration to the lowest concentration, creating 9 different concentrations. • c) Preparation of 20× compound working solution: 49 μL of cell culture medium was added to a flat-bottomed 96-well transparent drug plate. From the 1000× compound storage plate, 1 μL of the compound was pipetted into the cell culture medium in the 96-well transparent drug plate. In the solvent control, 1 μL of DMSO was added. After the compound or DMSO was added, the mixture was homogenized using a multi-channel pipette.
(§4) • a) Cells were stained with trypan blue and viable cells were counted to ensure a cell viability of 90% or more. • b) 95 μL of cell suspension (2000 cells/well) was added to each well of the compound assay cell plate, and cell-free culture medium containing 0.1% DMSO was added to the Min control wells. • c) Administration in the compound assay cell plate: 5 μL of 20× compound working solution was added to the cell culture plate. 5 μL of DMSO-cell culture medium mixture was added to the Max control wells. The final concentration of DMSO was 0.1%. • d) The culture plate was then incubated in an incubator at 37° C. with 5% CO2 for 72 hours.
(§5) The following steps were conducted in accordance with the instructions of the Promega CellTiter-Glo Luminescent Cell Viability Assay Kit (Promega-G7573). • a) CellTiter-Glo buffer was thawed and brought to room temperature. • b) CellTiter-Glo substrate was also brought to room temperature. • c) CellTiter-Glo buffer was added to a bottle of CellTiter-Glo substrate to dissolve the substrate, thereby preparing CellTiter-Glo working solution. • d) The mixture was slowly vortexed and shaken to be fully dissolved. • e) The cell culture plate was removed and allowed to equilibrate to room temperature for 10 minutes. • f) 50 μL (equal to half the volume of cell culture medium in each well) of CellTiter-Glo working solution was added to each well. • g) The culture plate was shaken on an orbital shaker for 2 minutes to induce cell lysis. • h) The plate was then left at room temperature for 10 minutes to stabilize the luminescent signal. • i) The luminescent signal was detected using a SpectraMax Paradigm plate reader.
(§6) Data analysis was conducted using GraphPad Prism 5.0 software. Nonlinear S-curve regression was employed to fit the data and generate dose-response curves. From these curves, the IC50 values were calculated.

Ba/F3-TEL-TYK2 cells = test: Proliferation of Ba/F3-TEL-TYK2 cells (CellTiter-Glo); assay type: cell-based; details: 72 hours, read-out: Half maximal inhibitory concentration IC50 for cells Ba/F3-TEL-TYK2
Source text: as §1, §2, §3, §4, §5, §6

[3] = test system: TYK2 signaling pathway (IFN-α/pSTAT1); test: IFN-α-induced STAT1 phosphorylation in mouse whole blood; assay type: cell-based; details: CD3+ cells
Protocol: The purpose of this experiment was to detect the inhibitory effect of the compound on the JAK-STAT signaling pathway activated by IFN-α in mouse whole blood. Fresh mouse whole blood was collected and placed in a 96-well plate. The test compound was added and incubated for 1 hour, followed by stimulation with IFN-α. The corresponding STAT1 phosphorylation level in the CD3^+ cell population was analyzed using flow cytometer by means of surface antibody staining and intracellular phosphorylated antibody staining. The IFN-α-induced STAT1 phosphorylation in mouse whole blood is dependent on TYK2 activity. By detecting the inhibitory activity of the compound on downstream […] phosphorylation, the half maximal inhibitory concentration (IC50) of the compound on TYK2 signaling pathway activity can be determined.
• a) The compound was prepared into a 10 mM solution with dimethyl sulfoxide (DMSO), and diluted in DMSO to a solution with various concentrations, 500 times the final concentration. • b) 5 μL of the diluted compound was transferred to 120 μL of phosphate buffered saline (PBS) containing 0.1% bovine serum albumin (BSA). • c) Positive and negative control groups were set up, with both finally containing 0.2% DMSO.
• a) 67.5 μL of mouse whole blood was added to each well of a 96-well cell culture plate. • b) 3.5 μL of the diluted compound was added thereto and mixed thoroughly. • c) The plate was incubated in a 37° C. incubator for 60 minutes. • d) Mouse interferon recombinant protein was diluted 125-fold in PBS containing 0.1% BSA, and anti-mouse CD3 antibody was diluted 5-fold in PBS containing 0.1% BSA. 5 μL of diluted anti-mouse CD3 antibody and 4 μL of diluted mouse interferon recombinant protein were added to each well. • e) The plate was incubated in a 37° C. incubator for 30 minutes. • f) All cells were transferred to a 96-well deep well plate, and 1 mL of 37° C. pre-warmed 1× lysis/fixation buffer was added thereto. • g) The cells were incubated in the dark at 37° C. for 10 minutes. • h) After centrifugation at 600 g for 5 minutes, the supernatant was discarded, and the cells were washed twice with 1 mL of PBS by centrifugation. • i) 0.4 mL per well of permeabilization buffer was added to the cell pellet and mixed thoroughly. The cells were incubated in the dark at 4° C. for 30 minutes. • j) After centrifugation at 600 g for 5 minutes, the supernatant was discarded, and the cells were washed twice with 1 mL of flow cytometry staining buffer (PBS+0.2% BSA+1 mM EDTA) by centrifugation. • k) Anti-STAT1 antibody was diluted 65-fold in flow cytometry staining buffer, and added to cell-containing wells at 100 μL per well and mixed thoroughly. • l) The cells were incubated at room temperature for 40 minutes. • m) 1 mL per well of flow cytometry staining buffer was added, and the cells were washed twice by centrifugation at 600 g for 5 minutes. • n) The supernatant was discarded, and the cell pellet was resuspended in 300 μL of flow cytometry staining buffer. • o) The samples were loaded for analysis using the Beckman CytoFlex flow cytometer.
Data were analyzed using FlowJo software. Curve fitting was performed and the IC50 was calculated using GraphPad Prism 8 software.

Ba/F3-FL-TYK2-E957D cells, sequence (P29597 whole entry E957D): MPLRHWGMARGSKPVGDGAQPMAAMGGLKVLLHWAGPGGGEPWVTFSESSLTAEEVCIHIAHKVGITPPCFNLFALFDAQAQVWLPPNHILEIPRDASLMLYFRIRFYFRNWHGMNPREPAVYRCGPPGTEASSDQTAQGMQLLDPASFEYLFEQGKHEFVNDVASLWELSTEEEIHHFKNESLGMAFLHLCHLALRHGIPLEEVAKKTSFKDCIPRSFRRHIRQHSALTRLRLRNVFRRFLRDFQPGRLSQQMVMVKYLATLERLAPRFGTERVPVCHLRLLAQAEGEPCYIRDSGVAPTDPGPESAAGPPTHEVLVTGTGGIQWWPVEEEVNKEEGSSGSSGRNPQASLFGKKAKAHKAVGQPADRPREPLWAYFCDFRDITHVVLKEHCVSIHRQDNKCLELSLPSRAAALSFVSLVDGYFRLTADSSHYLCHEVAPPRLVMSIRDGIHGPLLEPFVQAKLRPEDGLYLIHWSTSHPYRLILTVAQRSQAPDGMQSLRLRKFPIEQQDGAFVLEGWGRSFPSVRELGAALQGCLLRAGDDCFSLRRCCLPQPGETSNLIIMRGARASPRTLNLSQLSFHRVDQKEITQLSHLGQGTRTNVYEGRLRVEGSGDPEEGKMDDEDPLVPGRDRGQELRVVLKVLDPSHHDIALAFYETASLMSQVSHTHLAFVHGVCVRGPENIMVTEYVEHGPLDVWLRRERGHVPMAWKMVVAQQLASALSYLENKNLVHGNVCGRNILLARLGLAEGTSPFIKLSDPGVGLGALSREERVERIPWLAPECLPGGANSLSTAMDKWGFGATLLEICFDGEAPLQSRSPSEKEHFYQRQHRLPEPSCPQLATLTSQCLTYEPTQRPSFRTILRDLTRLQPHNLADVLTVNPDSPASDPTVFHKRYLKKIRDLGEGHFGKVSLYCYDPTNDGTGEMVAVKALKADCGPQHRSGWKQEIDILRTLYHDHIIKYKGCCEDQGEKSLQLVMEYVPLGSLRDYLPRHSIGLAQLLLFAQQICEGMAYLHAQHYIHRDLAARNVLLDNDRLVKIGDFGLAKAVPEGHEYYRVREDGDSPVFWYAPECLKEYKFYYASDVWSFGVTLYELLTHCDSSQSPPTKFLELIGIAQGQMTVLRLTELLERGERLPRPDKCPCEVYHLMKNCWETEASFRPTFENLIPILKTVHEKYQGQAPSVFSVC

| GI50 [2] [nM] | IC50 (Ba/F3-TEL-TYK2 cells) [nM] | IC50 [3] [nM] | SMILES | kinase selectivity [1] [fold] |
| --- | --- | --- | --- | --- |
| – | – | – | [2H]C([2H])([2H])NC(=O)c1nnc(NC(=O)C2CC2)cc1Nc1cccc(-c2ncn(C)n2)c1OC [BMS-986165] | > 1000 |
| 0.1 | > 10000 | 93.2 | COc1c(Nc2cc(NC(=O)C3CC3)ncc2C(N)=O)cccc1-c1ccc(S(=O)(=O)C(C)C)cn1 [Trifluoroacetate of WX-034] | – |
| 0.1 | > 10000 | 316 | COc1c(Nc2cc(NC(=O)C3CC3)ncc2C(N)=O)cccc1-c1ncc(S(=O)(=O)C(C)C)cn1 [WX-033] | – |
